Where a name gives a salt, the structure may show the parent alone.
Legend:
E. feacium DltA = target: T1, E. feacium DltA (Enterococcus faecium, UniProt Q3XZT7); assay: in vitro DltA activity assay (luminescence, IC50 determination); type: biochemical; conditions: recombinant DltA, 30min preincubation at room temperature, 0.5mM D-Alanine, 0.5-5µM ATP; read-out: E. feacium DltA IC50
T1 sequence (Q3XZT7 1-504): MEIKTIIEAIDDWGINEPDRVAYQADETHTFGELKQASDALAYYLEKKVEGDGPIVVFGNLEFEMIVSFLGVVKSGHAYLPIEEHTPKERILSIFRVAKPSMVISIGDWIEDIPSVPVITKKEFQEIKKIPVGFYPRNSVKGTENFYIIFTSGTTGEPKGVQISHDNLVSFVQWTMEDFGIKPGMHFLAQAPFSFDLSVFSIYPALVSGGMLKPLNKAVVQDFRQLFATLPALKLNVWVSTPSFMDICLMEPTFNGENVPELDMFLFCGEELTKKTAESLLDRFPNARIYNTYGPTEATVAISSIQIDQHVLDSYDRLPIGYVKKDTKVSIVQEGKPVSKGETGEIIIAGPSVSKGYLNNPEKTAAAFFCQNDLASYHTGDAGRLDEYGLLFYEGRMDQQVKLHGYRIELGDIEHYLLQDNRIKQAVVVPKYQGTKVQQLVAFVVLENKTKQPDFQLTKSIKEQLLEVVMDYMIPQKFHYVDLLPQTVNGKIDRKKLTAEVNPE
Method: (§1) The effect of the compounds of the invention on DltA enzymes has been based on the measure of their inhibition of DltA activity in vitro. To this end, recombinant proteins DltA were expressed and purified after cloning of the genes of S. aureus, E. faecalis, E. faecium and S. agalactiae as described thereafter. The capacity of the compounds of the invention to inhibit DltA enzymatic activity was assessed using the DltA assays as described below: • The dltA gene was amplified from chromosomal DNA of S. aureus, E. faecalis, E. faecium and S. agalactiae and introduced into E. coli BL21 (Invitrogen, Carlsbad, CA) following manufacturer's instruction. Bacteria were grown at 37°C under aerobic conditions and isopropyl-beta-D-thiogalactopyranoside (IPTG) was added to 0.5-1 mM when OD600 of the bacterial culture had reached 0.5. After a further incubation for 3 hours, cells were harvested by centrifugation. Purification of the recombinant DltA protein was performed by affinity chromatography on nickel-nitrilotriacetic acid (Ni-NTA) column following manufacturer's instructions (Qiagen). Fractions containing recombinant DltA protein were adjusted to 50% glycerol and stored at -20°C until use.
(§2) The binding potency of the inhibitors against DltA enzyme was assessed by IC50 determination in an in vitro DltA activity assay. The assay buffer "AB" contained 50 mM Hepes pH8.0, 10mM MgCl2, 50mM KCI, 0.012% Triton-X100, 10mM DTT and 100nM Myelin-basic protein. The following components were added in a white polystyrene Costar plate up to a final volume of 30µL: 3µL DMSO, or inhibitor dissolved in DMSO and 27µL DltA enzyme in AB. After 30min of preincubation at room temperature, 30µL of Substrates mix in AB were added in each well to a final volume of 60µL. This reaction mixture was then composed of DltA (produced in house from S. aureus, E. faecalis, E. faecium and S. agalactiae), 0.5mM D-Alanine (Sigma), 0.5-5µM ATP (Sigma) and 0.05 u/ml inorganic pyrophosphatase (Sigma) in assay buffer. After typically 1-2hours of incubation at room temperature (conversion rate around 30%), 30µL of the revelation mix were added to a final volume of 90µL, including the following constituents at the respective final concentrations: 10000 u/ml luciferase (Sigma), 30µM D-luciferin (Sigma), 100µM N-acetylcysteamine (Aldrich). Luminescence intensity was immediately measured on a Fluostar Optima (BMG) (excitation 360nm, emission 520nm) and converted into inhibition percentages.
(§3) For compounds interfering with the luminescent signal (quenching), the same experiment without DltA enzyme was performed to allow quenching determination and correction.

S. aureus DltA = target: T2, S. aureus DltA (Staphylococcus aureus, UniProt Q2FZW6); assay: as above; type: biochemical
T2 construct: made in house; host or cells: E. coli BL21
T2 sequence (Q2FZW6 1-485): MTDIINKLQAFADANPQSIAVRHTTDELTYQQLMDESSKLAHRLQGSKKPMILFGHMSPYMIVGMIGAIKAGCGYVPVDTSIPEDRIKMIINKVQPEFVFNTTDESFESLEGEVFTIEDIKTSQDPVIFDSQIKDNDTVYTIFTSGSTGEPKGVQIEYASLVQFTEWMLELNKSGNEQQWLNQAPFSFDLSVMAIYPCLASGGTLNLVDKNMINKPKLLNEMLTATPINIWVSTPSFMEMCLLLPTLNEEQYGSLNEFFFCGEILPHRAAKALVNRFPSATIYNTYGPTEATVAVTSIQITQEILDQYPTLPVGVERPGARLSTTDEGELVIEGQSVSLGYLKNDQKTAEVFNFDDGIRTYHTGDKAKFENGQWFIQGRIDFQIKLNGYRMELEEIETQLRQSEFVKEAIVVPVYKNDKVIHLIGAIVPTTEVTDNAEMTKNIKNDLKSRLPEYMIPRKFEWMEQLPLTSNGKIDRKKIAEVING
Method: as §1, §2, §3

E. feacalis DltA = target: T3, E. feacalis DltA (Enterococcus faecalis, UniProt Q830N0); assay: biochemical
T3 sequence (Q830N0 1-506): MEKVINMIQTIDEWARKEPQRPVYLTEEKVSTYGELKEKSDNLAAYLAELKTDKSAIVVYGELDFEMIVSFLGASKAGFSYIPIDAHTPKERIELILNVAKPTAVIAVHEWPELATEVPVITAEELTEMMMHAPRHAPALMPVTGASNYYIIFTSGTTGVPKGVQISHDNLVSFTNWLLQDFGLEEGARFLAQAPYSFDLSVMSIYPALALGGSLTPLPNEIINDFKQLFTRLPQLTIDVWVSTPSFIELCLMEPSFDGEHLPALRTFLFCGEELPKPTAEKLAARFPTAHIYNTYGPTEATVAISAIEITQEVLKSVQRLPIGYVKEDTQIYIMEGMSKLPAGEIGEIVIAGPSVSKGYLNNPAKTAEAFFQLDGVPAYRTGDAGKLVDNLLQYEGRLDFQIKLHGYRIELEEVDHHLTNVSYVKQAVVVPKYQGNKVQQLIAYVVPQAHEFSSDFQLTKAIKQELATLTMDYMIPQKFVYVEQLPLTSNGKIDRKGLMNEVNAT
Method: as §1, with “To” for “The effect of the compounds of the invention on DltA enzymes has been based on the measure of their inhibition of DltA activity in vitro. To”
as §2, §3

S. Agalactiae DltA = target: T4, S. Agalactiae DltA (Streptococcus agalactiae serotype III, UniProt Q8VM67); assay: biochemical
T4 sequence (Q8VM67 1-511): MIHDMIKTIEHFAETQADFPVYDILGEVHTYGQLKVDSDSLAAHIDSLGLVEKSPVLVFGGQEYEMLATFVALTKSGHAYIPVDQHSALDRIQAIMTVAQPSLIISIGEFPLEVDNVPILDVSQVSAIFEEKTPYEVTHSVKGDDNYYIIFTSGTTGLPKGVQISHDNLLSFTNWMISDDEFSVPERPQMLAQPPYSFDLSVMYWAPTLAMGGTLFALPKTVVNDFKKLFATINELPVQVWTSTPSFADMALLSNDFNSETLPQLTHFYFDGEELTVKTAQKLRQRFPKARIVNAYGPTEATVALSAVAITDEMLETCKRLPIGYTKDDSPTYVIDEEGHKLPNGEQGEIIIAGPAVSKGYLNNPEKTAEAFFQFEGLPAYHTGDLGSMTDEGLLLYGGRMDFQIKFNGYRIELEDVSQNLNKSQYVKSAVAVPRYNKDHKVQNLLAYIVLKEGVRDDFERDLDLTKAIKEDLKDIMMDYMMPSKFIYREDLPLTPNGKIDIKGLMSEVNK
Method: as §1, with “To” for “The effect of the compounds of the invention on DltA enzymes has been based on the measure of their inhibition of DltA activity in vitro. To”
as §2, §3

SMILES | IC50 (E. feacium DltA) [µM] | IC50 (S. aureus DltA) [µM] | IC50 (E. feacalis DltA) [µM] | IC50 (S. Agalactiae DltA) [µM]
O=c1[nH]cnc2c(-c3ccc4c(c3)ncn4C3CCCCC3)sc(N3C[C@H](CO)[C@@H](CO)C3)c12 [Example 35, 5-((3R,4R)-3,4-Bis-hydroxymethyl-pyrrolidin-1-yl)-7-(1-cyclohexyl-1H-benzoimidazol-5-yl)-3H-thieno[3,4-d]pyrimidin-4-one] | 0.093 | 0.054 | 0.039 | 0.87
O=c1[nH]cnc2c(-c3ccc4c(c3)ncn4C3CCCCC3)cn(CCCCCO)c12 [Example 68, 7-(1-Cyclohexyl-1H-benzimidazol-5-yl)-5-(5-hydroxy-pentyl)-3,5-dihydro-pyrrolo[3,2-d]pyrimidin-4-one] | 0.73 | 0.29 | 0.32 | 4.5
O=c1[nH]cnc2c(-c3ccc4c(c3)ncn4C3CCCCC3)sc(C3=CCNCC3)c12 [Example 37, 7-(1-cyclohexyl-1H-benzoimidazol-5-yl)-5-(1,2,3,6-tetrahydro-pyridin-4-yl)-3H-thieno[3,4-d]pyrimidin-4-one hydrochloride] | 0.042 | 0.068 | 0.025 | 0.66
O=c1[nH]cnc2c(-c3ccc4c(c3)ncn4C3CCCCC3)sc(N3CC[C@H](CO)C3)c12 [Example 7, 7-(1-Cyclohexyl-1H-benzoimidazol-5-yl)-5-((S)-3-hydroxymethyl-pyrrolidin-1-yl)-3H-thieno[3,4-d]pyrimidin-4-one] | 0.12 | 0.07 | 0.037 | 3.2
O=c1[nH]cnc2c1c(C1=CCNCC1)cn2-c1ccc2c(c1)ncn2C1CCCCC1 [Example 52, 7-(1-cyclohexyl-1H-benzoimidazol-5-yl)-5-(1,2,3,6-tetrahydro-pyridin-4-yl)-3,7-dihydro-pyrrolo[2,3-d]pyrimidin-4-one hydrochloride] | 0.12 | 0.15 | 0.026 | 0.35
O=c1[nH]cnc2c(-c3ccc4c(c3)ncn4C3CCCCC3)cn([C@H]3CCCNC3)c12 [Example 76, 7-(1-Cyclohexyl-1H-benzimidazol-5-yl)-5-(S)-piperidin-3-yl-3,5-dihydro-pyrrolo[3,2-d]pyrimidin-4-one] | 0.46 | 0.067 | 0.069 | 1.2
CC(C)N1CCC(n2cc(-c3ccc4c(c3)ncn4C3CCCCC3)c3nc[nH]c(=O)c32)CC1 [Example 82, 7-(1-Cyclohexyl-1H-benzimidazol-5-yl)-5-(1-isopropyl-piperidin-4-yl)-3,5-dihydro-pyrrolo[3,2-d]pyrimidin-4-one] | 0.38 | 0.056 | 0.1 | 1.9
CN1CC=C(c2cn(-c3ccc4c(c3)ncn4C3CCCCC3)c3nc[nH]c(=O)c23)CC1 [Example 53, 7-(1-cyclohexyl-1H-benzoimidazol-5-yl)-5-(1-methyl-1,2,3,6-tetrahydro-pyridin-4-yl)-3,7-dihydro-pyrrolo[2,3-d]pyrimidin-4-one] | 0.094 | 0.15 | 0.013 | 0.59
O=c1[nH]cnc2c(-c3ccc4c(c3)ncn4C3CCCCC3)cn(C3CCOCC3)c12 [Example 81, 7-(1-Cyclohexyl-1H-benzimidazol-5-yl)-5-(tetrahydro-pyran-4-yl)-3,5-dihydro-pyrrolo[3,2-d]pyrimidin-4-one] | 0.3 | 0.076 | 0.17 | 2.5
